The source of these data is article PMC4134960 (Pharmacological research : the official journal of the …, 2014).

One data set relates to wild-type MDCKII cells. Put plainly: Transepithelial transport in monolayers of wild-type MDCKII cells.
For the next data set, the target named is T1, murine Abcg2 (Mus musculus, UniProt Q7TMS5).
T1 sequence (Q7TMS5 1-657): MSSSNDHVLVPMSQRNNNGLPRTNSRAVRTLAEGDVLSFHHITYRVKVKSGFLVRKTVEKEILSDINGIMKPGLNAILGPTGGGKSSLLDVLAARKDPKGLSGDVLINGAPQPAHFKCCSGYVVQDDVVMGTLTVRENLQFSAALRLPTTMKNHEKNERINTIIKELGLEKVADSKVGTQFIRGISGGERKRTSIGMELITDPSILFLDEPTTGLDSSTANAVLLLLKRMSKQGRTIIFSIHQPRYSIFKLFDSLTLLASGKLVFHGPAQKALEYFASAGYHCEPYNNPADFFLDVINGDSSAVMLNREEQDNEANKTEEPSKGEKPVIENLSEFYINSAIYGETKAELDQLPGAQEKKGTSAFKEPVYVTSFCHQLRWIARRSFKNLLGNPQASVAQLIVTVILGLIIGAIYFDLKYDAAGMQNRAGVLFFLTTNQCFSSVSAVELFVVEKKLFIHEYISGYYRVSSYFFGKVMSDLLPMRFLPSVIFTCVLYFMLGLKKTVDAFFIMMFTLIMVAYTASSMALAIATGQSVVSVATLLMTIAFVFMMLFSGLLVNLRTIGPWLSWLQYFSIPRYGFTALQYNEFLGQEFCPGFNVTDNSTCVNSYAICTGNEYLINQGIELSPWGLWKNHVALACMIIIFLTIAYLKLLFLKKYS
Put plainly: Transepithelial transport in monolayers of MDCKII cells over-expressing Abcg2. It is filed as in vitro ADME.

For data set [1] the following is noted: ref Moreno-Sanz et al., 2013; cited from earlier work.
Another data set concerns the target human ABCB1 (Homo sapiens, UniProt P08183). As to the kind of experiment: Transepithelial transport in monolayers of MDCKII cells over-expressing ABCB1. Particulars: for A to B transport (percentage of drug appearing in the opposite compartment) / B to A transport (percentage of drug appearing in the opposite compartment) / Ratio BA/AB (relative transport ratio): MDCKII over-expressing ABCB1, after 4h, 5 μM (compound 8: 1 μM); for Vectorial transport by ABCB1 (in words): MDCKII transduced with human ABCB1.

Another data set has as its target T2, FAAH (Mus musculus, UniProt O08914).
T2 sequence (O08914 1-579): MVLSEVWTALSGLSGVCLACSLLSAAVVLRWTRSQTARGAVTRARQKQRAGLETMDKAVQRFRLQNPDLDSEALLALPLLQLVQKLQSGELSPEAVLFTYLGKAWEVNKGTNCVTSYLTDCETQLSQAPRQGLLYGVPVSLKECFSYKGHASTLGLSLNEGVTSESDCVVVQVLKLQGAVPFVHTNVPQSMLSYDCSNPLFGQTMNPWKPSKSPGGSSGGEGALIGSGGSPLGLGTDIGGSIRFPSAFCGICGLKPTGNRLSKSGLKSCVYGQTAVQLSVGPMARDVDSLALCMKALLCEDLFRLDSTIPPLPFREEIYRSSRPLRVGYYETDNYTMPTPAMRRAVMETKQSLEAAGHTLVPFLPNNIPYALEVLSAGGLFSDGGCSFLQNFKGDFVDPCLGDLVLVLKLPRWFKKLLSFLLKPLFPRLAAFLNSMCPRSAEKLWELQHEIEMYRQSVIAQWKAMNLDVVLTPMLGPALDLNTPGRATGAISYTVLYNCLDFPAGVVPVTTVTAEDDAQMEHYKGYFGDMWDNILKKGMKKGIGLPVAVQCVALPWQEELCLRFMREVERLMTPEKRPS
Conditions: inhibition of brain FAAH activity after systemic administration in mice; ref Moreno-Sanz et al., 2013; cited from earlier work.

Data set [2] in a line: Transepithelial transport in monolayers of wild-type MDCKII cells. Particulars: dog, MDCK, Ratio BA/AB (relative transport ratio), after 4h, 5 μM (compound 8: 1 μM).
The next data set deals with T3, Abcg2 (Mus musculus, UniProt Q7TMS5).
T3 sequence (Q7TMS5 1-657): T1 sequence (Q7TMS5 1-657)
As to the kind of experiment: Transepithelial transport in monolayers of MDCKII cells over-expressing Abcg2. It is filed as in vitro ADME, murine. Conditions: mouse, Ratio BA/AB (relative transport ratio), MDCKII over-expressing Abcg2, after 4h, 5 μM (compound 8: 1 μM).

[3] abbreviates: after 4h, 5 μM (compound 8: 1 μM).
Where [4] appears, read: MDCKII over-expressing Abcg2, after 4h, 5 μM (compound 8: 1 μM).

SMILES strings stand for the structures.

Sequence of human ABCB1 (P08183 whole entry): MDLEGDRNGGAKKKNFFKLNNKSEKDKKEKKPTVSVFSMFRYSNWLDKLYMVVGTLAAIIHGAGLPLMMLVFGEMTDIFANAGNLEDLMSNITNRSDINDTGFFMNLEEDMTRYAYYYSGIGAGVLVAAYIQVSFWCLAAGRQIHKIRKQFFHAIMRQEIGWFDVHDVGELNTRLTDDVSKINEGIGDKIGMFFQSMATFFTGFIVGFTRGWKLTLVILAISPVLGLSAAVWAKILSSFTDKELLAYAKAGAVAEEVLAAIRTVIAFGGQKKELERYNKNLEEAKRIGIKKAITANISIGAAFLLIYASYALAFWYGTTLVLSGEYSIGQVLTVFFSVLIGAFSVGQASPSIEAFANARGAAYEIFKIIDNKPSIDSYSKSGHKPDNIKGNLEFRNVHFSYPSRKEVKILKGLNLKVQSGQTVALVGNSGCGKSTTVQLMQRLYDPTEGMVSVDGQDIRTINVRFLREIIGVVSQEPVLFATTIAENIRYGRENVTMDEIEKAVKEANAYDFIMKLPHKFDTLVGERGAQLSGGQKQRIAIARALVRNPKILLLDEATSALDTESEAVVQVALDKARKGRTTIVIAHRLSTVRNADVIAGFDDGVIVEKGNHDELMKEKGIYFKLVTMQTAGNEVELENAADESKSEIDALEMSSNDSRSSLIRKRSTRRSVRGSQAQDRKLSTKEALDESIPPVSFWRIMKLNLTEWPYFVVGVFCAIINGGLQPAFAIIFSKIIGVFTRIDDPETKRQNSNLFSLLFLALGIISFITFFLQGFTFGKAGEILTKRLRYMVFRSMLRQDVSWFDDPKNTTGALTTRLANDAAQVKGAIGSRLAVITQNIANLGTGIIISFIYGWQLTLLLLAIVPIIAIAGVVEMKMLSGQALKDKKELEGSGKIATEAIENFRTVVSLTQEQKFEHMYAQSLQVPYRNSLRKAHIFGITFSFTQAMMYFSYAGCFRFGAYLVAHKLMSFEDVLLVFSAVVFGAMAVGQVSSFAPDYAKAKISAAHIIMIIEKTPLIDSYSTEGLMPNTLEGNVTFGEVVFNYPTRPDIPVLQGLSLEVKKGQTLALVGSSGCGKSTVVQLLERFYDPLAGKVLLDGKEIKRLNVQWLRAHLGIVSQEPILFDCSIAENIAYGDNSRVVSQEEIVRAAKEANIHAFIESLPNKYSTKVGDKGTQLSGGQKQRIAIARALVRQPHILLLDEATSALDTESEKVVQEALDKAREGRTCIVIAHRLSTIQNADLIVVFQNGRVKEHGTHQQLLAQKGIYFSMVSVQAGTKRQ

On to `CNC(=O)c1cccc(-c2cc(OC(=O)NC3CCCCC3)ccc2O)c1` [Compound 1], for which the “A to B transport (percentage of drug appearing in the opposite compartment)” value with wild-type MDCKII cells (setting [3]) is given as 21.7 ± 0.96%; at murine Abcg2 (setting [4]), 6.99 ± 0.99 %; at human ABCB1, 8.55 ± 1.79%. For the same compound, the “B to A transport (percentage of drug appearing in the opposite compartment)” value in the data set on wild-type MDCKII cells (setting [3]) was 48.1 ± 2.33%; on murine Abcg2 (setting [4]), 69.8 ± 16.9%; at human ABCB1, 67.4 ± 14.5%. In data set [1], the “PSA (polar surface area)” value was 73 Å^2.

Regarding `CN(C)C(=O)c1cccc(-c2cc(OC(=O)NC3CCCCC3)ccc2O)c1` [Compound 2], in the data set with wild-type MDCKII cells (setting [3]), the “A to B transport (percentage of drug appearing in the opposite compartment)” value is 25.6 ± 1.96% and the “B to A transport (percentage of drug appearing in the opposite compartment)” value is 43.1 ± 4.48%. Besides, the “Brain ID50” value on FAAH is 5 mg/kg. On murine Abcg2 (setting [4]), the “A to B transport (percentage of drug appearing in the opposite compartment)” value was determined as 6.95 ± 0.42 % and the “B to A transport (percentage of drug appearing in the opposite compartment)” value is listed as 91.0 ± 12.7%. For the same compound, in data set [1], the “PSA (polar surface area)” value is reported as 65 Å^2. At human ABCB1, the “A to B transport (percentage of drug appearing in the opposite compartment)” value amounted to 8.86 ± 0.95%, the “B to A transport (percentage of drug appearing in the opposite compartment)” value was 58.6 ± 3.85% and the “Ratio BA/AB (relative transport ratio)” value came to 6.65 ± 0.36.

For the compound `CC(=O)c1cccc(-c2cc(OC(=O)NC3CCCCC3)ccc2O)c1` [Compound 3], in the data set with wild-type MDCKII cells (setting [3]), the “A to B transport (percentage of drug appearing in the opposite compartment)” value was 39.4 ± 0.54% and the “B to A transport (percentage of drug appearing in the opposite compartment)” value came to 46.8 ± 2.73%. In addition, the “Brain ID50” value on FAAH is recorded as below 1 mg/kg. The “Transport substrate for Abcg2 (in words)” value on murine Abcg2 (MDCKII over-expressing Abcg2) was “did not behave as a transport substrate for Abcg2”. Also, at murine Abcg2 (setting [4]), the “A to B transport (percentage of drug appearing in the opposite compartment)” value is recorded as 24.5 ± 2.39 %, the “B to A transport (percentage of drug appearing in the opposite compartment)” value is on record as 30.5 ± 0.75% and the “Ratio BA/AB (relative transport ratio)” value is recorded as 1.25 ± 0.13. For the same compound, the “PSA (polar surface area)” value in data set [1] is on record as 62 Å^2. For the same compound, on human ABCB1, the “A to B transport (percentage of drug appearing in the opposite compartment)” value came to 39.8 ± 1.88%, the “B to A transport (percentage of drug appearing in the opposite compartment)” value came to 57.6 ± 7.90%, the “Ratio BA/AB (relative transport ratio)” value is on record as 1.44 ± 0.13 and the “Vectorial transport by ABCB1 (in words)” value is listed as “no significant vectorial transport”.

For the compound `O=C(NC1CCCCC1)Oc1ccc(O)c(-c2cccc(C(=O)O)c2)c1` [Compound 4], in the data set on wild-type MDCKII cells, the “Translocation in apical or basolateral direction (in words)” value was “minimal translocation in either the apical or basolateral direction”. Further, in the data set with wild-type MDCKII cells (setting [3]), the “A to B transport (percentage of drug appearing in the opposite compartment)” value is recorded as 4.93 ± 0.88% and the “B to A transport (percentage of drug appearing in the opposite compartment)” value is listed as 5.21 ± 0.42%. The “Brain ID50” value at FAAH is on record as 12 mg/kg. Further, the “PSA (polar surface area)” value in data set [1] is reported as 77 Å^2.

Regarding `COc1ccc(OC(=O)NC2CCCCC2)cc1-c1cccc(C(N)=O)c1` [Compound 7], in the data set with wild-type MDCKII cells (setting [3]), the “A to B transport (percentage of drug appearing in the opposite compartment)” value worked out at 29.3 ± 0.44% and the “B to A transport (percentage of drug appearing in the opposite compartment)” value stood at 37.1 ± 1.48%. Further, at murine Abcg2 (setting [4]), the “A to B transport (percentage of drug appearing in the opposite compartment)” value came out at 7.29 ± 1.30 % and the “B to A transport (percentage of drug appearing in the opposite compartment)” value is listed as 98.8 ± 16.6%. Further, in data set [1], the “PSA (polar surface area)” value is 74 Å^2. Besides, at human ABCB1, the “A to B transport (percentage of drug appearing in the opposite compartment)” value came out at 21.6 ± 0.55%, the “B to A transport (percentage of drug appearing in the opposite compartment)” value was determined as 45.1 ± 3.61%, the “Ratio BA/AB (relative transport ratio)” value is 2.08 ± 0.11 and the “Vectorial transport by ABCB1 (in words)” value is on record as “no significant vectorial transport”.

By efflux ratio is commonly meant the permeability from basolateral to apical divided by that in the opposite direction, in the common usage. As for `Cc1ccc(OC(=O)NC2CCCCC2)cc1-c1cccc(C(N)=O)c1` [Compound 8, cyclohexylcarbamic acid 3′-carbamoyl-6-methylbiphenyl-3-yl ester], the entries for the “A to B transport (percentage of drug appearing in the opposite compartment)” value in the data set on wild-type MDCKII cells (setting [3]), at murine Abcg2 (setting [4]) and on human ABCB1 were 26.0 ± 1.52%, 5.59 ± 0.58 % and 20.7 ± 1.00%, respectively. Further, the “B to A transport (percentage of drug appearing in the opposite compartment)” value came to 27.3 ± 3.8% in the data set on wild-type MDCKII cells (setting [3]), 64.8 ± 4.87% on murine Abcg2 (setting [4]) and 35.8 ± 0.43% on human ABCB1. In the data set with wild-type MDCKII cells (setting [3]), the “Ratio BA/AB (relative transport ratio)” value was 1.06 ± 0.15. The efflux ratio at 4 h is around 1 in data set [2] and at least 10 at Abcg2. In addition, the “PSA (polar surface area)” value in data set [1] is 66 Å^2. On human ABCB1, the “Vectorial transport by ABCB1 (in words)” value is recorded as “no significant vectorial transport”.

In the case of `N.NC(=O)c1cccc(-c2cc(OC(=O)NC3CCCCC3)ccc2OS(=O)(=O)O)c1` [Compound 9], the “Translocation in apical or basolateral direction (in words)” value in the data set on wild-type MDCKII cells is reported as “minimal translocation in either the apical or basolateral direction”. Also, in the data set with wild-type MDCKII cells (setting [3]), the “A to B transport (percentage of drug appearing in the opposite compartment)” value came out at 7.92 ± 0.41% and the “B to A transport (percentage of drug appearing in the opposite compartment)” value is 7.49 ± 0.39%. Also, the “Brain ID50” value on FAAH is listed as above 75 mg/kg. In data set [1], the “PSA (polar surface area)” value was 117 Å^2.

As for `COc1ccc2c3c([nH]c2c1)[C@H](CC(C)C)N1C(=O)[C@H](CCC(=O)OC(C)(C)C)NC(=O)[C@@H]1C3` [Ko143, reference compound], the “Effect of inhibitor on translocation of all compounds (in words)” value on murine Abcg2 (MDCKII over-expressing Abcg2, Ko143 1 μM) was “blocked”.
